In ChEMBL document CHEMBL3875178, “Discovery of oral-available resveratrol-caffeic acid based hybrids inhibiting acetylated and phosphorylated STAT3 protein” (Eur J Med Chem, 2016):
Blank lines part the entries; values can stand above or below the compound they belong to. Calls of active or inactive are those of the source. The rule behind the calls is not given here.

Experiments:
[1] = Growth inhibition of human HT-29 cells after 48 hrs by MTT assay; assay type: functional, cell-based; conditions: HT-29, 48 h
[2] = Growth inhibition of human MDA-MB-231 cells after 48 hrs by MTT assay; assay type: functional, cell-based; conditions: MDA-MB-231, 48 h
MDA-MB-231 [3] = assay: Potency index, ratio of resveratrol IC50 to compound IC50 for human MDA-MB-231 cells; assay type: functional
[4] = molecular target: Signal transducer and activator of transcription 3 (Homo sapiens) (UniProt P40763); assay: Inhibition of STAT3 acetylation at Lys-685 residue in human MDA-MB-231 cells after 48 hrs by Western blot method; assay type: cell-based
Signal transducer and activator of transcription 3 (Homo sapiens), sequence (P40763 whole entry): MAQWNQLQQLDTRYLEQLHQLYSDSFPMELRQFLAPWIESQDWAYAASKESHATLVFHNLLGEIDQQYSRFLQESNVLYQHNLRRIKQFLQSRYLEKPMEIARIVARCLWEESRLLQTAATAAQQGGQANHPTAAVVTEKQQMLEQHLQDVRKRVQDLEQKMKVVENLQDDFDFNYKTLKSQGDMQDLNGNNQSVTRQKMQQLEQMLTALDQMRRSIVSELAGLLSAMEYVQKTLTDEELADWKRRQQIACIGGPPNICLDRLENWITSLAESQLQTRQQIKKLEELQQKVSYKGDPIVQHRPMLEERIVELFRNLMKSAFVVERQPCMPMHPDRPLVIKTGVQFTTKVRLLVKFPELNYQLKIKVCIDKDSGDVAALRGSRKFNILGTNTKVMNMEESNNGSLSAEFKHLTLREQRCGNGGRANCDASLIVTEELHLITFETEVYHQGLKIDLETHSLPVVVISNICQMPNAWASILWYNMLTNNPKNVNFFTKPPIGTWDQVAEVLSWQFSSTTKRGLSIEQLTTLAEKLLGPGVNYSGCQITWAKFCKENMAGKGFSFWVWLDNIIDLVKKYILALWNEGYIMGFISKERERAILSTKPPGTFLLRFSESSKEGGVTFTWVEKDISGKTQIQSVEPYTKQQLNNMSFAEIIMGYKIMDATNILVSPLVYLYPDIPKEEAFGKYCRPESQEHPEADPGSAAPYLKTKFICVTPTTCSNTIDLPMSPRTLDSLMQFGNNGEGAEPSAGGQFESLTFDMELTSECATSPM

[5] = Effect on total STAT3 protein level in human MDA-MB-231 cells at 1 to 5 uM after 48 hrs by Western blot method; assay type: ADME, cell-based; conditions: mda-mb-231, 48 h
[6] = molecular target: Signal transducer and activator of transcription 3 (Homo sapiens) (UniProt P40763); assay: Inhibition of STAT3 acetylation at Lys-685 residue in human MDA-MB-231 cells assessed as increase in PTPN6 mRNA at 1- 10 uM expression after 48 hrs by RT-PCR method; assay type: cell-based
[7] = molecular target: Signal transducer and activator of transcription 3 (Homo sapiens) (UniProt P40763); assay: Inhibition of STAT3 acetylation at Lys-685 residue in human MDA-MB-231 cells assessed as increase in CDKN2A mRNA at 1- 10 uM expression after 48 hrs by RT-PCR method; assay type: cell-based
[8] = molecular target: Signal transducer and activator of transcription 3 (Homo sapiens) (UniProt P40763); assay: Inhibition of STAT3 acetylation at Lys-685 residue in human MDA-MB-231 cells assessed as increase in DLEC1 mRNA at 1- 10 uM expression after 48 hrs by RT-PCR method; assay type: cell-based
[9] = molecular target: Signal transducer and activator of transcription 3 (Homo sapiens) (UniProt P40763); assay: Inhibition of STAT3 phosphorylation at Tyr-705 residue in human MDA-MB-231 cells after 48 hrs by Western blot method; assay type: cell-based
[10] = molecular target: Signal transducer and activator of transcription 3 (Homo sapiens) (UniProt P40763); assay: Inhibition of STAT3 phosphorylation at Tyr-705 residue in human MDA-MB-231 cells assessed as decrease in Bcl2 protein expression at 1 to 5 uM after 48 hrs by Western blot method; assay type: cell-based
[11] = molecular target: Signal transducer and activator of transcription 3 (Homo sapiens) (UniProt P40763); assay: Inhibition of STAT3 phosphorylation at Tyr-705 residue in human MDA-MB-231 cells assessed as decrease in Cyclin D1 protein expression at 1 to 5 uM after 48 hrs by Western blot method; assay type: cell-based
[12] = molecular target: Signal transducer and activator of transcription 3 (Homo sapiens) (UniProt P40763); assay: Inhibition of STAT3 phosphorylation at Tyr-705 residue in human MDA-MB-231 cells assessed as decrease in Bcl2 mRNA expression at 1 to 5 uM after 48 hrs by RT-PCR method; assay type: cell-based
[13] = molecular target: Signal transducer and activator of transcription 3 (Homo sapiens) (UniProt P40763); assay: Inhibition of STAT3 phosphorylation at Tyr-705 residue in human MDA-MB-231 cells assessed as decrease in Cyclin D1 mRNA expression at 1 to 5 uM after 48 hrs by RT-PCR method; assay type: cell-based
MDA-MB-231 [14] = assay: Induction of apoptosis in human MDA-MB-231 cells assessed as live cells at 1 uM after 48 hrs by Annexin-V FITC/propidium iodide staining based flow cytometry (reference value: 96.1%); assay type: functional
MDA-MB-231 [15] = assay: Induction of apoptosis in human MDA-MB-231 cells assessed as early apoptotic cells at 1 uM after 48 hrs by Annexin-V FITC/propidium iodide staining based flow cytometry (reference value: 2.6%); assay type: functional
MDA-MB-231 [16] = assay: Induction of apoptosis in human MDA-MB-231 cells assessed as late apoptotic cells at 1 uM after 48 hrs by Annexin-V FITC/propidium iodide staining based flow cytometry (reference value: 0.4%); assay type: functional
MDA-MB-231 [17] = assay: Induction of apoptosis in human MDA-MB-231 cells assessed as necrotic cells at 1 uM after 48 hrs by Annexin-V FITC/propidium iodide staining based flow cytometry (reference value: 0.8%); assay type: functional
MDA-MB-231 [18] = assay: Induction of apoptosis in human MDA-MB-231 cells assessed as live cells at 2 uM after 48 hrs by Annexin-V FITC/propidium iodide staining based flow cytometry (reference value: 96.1%); assay type: functional
MDA-MB-231 [19] = assay: Induction of apoptosis in human MDA-MB-231 cells assessed as early apoptotic cells at 2 uM after 48 hrs by Annexin-V FITC/propidium iodide staining based flow cytometry (reference value: 2.6%); assay type: functional
MDA-MB-231 [20] = assay: Induction of apoptosis in human MDA-MB-231 cells assessed as late apoptotic cells at 2 uM after 48 hrs by Annexin-V FITC/propidium iodide staining based flow cytometry (reference value: 0.4%); assay type: functional
MDA-MB-231 [21] = assay: Induction of apoptosis in human MDA-MB-231 cells assessed as necrotic cells at 2 uM after 48 hrs by Annexin-V FITC/propidium iodide staining based flow cytometry (reference value: 0.8%); assay type: functional
MDA-MB-231 [22] = assay: Induction of apoptosis in human MDA-MB-231 cells assessed as live cells at 5 uM after 48 hrs by Annexin-V FITC/propidium iodide staining based flow cytometry (reference value: 96.1%); assay type: functional
MDA-MB-231 [23] = assay: Induction of apoptosis in human MDA-MB-231 cells assessed as early apoptotic cells at 5 uM after 48 hrs by Annexin-V FITC/propidium iodide staining based flow cytometry (reference value: 2.6%); assay type: functional
MDA-MB-231 [24] = assay: Induction of apoptosis in human MDA-MB-231 cells assessed as late apoptotic cells at 5 uM after 48 hrs by Annexin-V FITC/propidium iodide staining based flow cytometry (reference value: 0.4%); assay type: functional
MDA-MB-231 [25] = assay: Induction of apoptosis in human MDA-MB-231 cells assessed as necrotic cells at 5 uM after 48 hrs by Annexin-V FITC/propidium iodide staining based flow cytometry (reference value: 0.8%); assay type: functional
MDA-MB-231 [26] = assay: Induction of apoptosis in human MDA-MB-231 cells assessed as live cells at 8 uM after 48 hrs by Annexin-V FITC/propidium iodide staining based flow cytometry (reference value: 96.1%); assay type: functional
MDA-MB-231 [27] = assay: Induction of apoptosis in human MDA-MB-231 cells assessed as early apoptotic cells at 8 uM after 48 hrs by Annexin-V FITC/propidium iodide staining based flow cytometry (reference value: 2.6%); assay type: functional
MDA-MB-231 [28] = assay: Induction of apoptosis in human MDA-MB-231 cells assessed as late apoptotic cells at 8 uM after 48 hrs by Annexin-V FITC/propidium iodide staining based flow cytometry (reference value: 0.4%); assay type: functional
MDA-MB-231 [29] = assay: Induction of apoptosis in human MDA-MB-231 cells assessed as necrotic cells at 8 uM after 48 hrs by Annexin-V FITC/propidium iodide staining based flow cytometry (reference value: 0.8%); assay type: functional
MDA-MB-231 [30] = assay: Induction of apoptosis in human MDA-MB-231 cells assessed as live cells at 10 uM after 48 hrs by Annexin-V FITC/propidium iodide staining based flow cytometry (reference value: 96.1%); assay type: functional
MDA-MB-231 [31] = assay: Induction of apoptosis in human MDA-MB-231 cells assessed as early apoptotic cells at 10 uM after 48 hrs by Annexin-V FITC/propidium iodide staining based flow cytometry (reference value: 2.6%); assay type: functional
MDA-MB-231 [32] = assay: Induction of apoptosis in human MDA-MB-231 cells assessed as late apoptotic cells at 10 uM after 48 hrs by Annexin-V FITC/propidium iodide staining based flow cytometry (reference value: 0.4%); assay type: functional
MDA-MB-231 [33] = assay: Induction of apoptosis in human MDA-MB-231 cells assessed as necrotic cells at 10 uM after 48 hrs by Annexin-V FITC/propidium iodide staining based flow cytometry (reference value: 0.8%); assay type: functional
MDA-MB-231 [34] = assay: Induction of apoptosis in human MDA-MB-231 cells assessed as increase in cleaved caspase-9 expression after 48 hrs by Western blot method; assay type: functional, cell-based
MDA-MB-231 [35] = assay: Induction of apoptosis in human MDA-MB-231 cells assessed as increase in cleaved caspase-3 expression after 48 hrs by Western blot method; assay type: functional, cell-based
MDA-MB-231 [36] = assay: Induction of apoptosis in human MDA-MB-231 cells assessed as increase in cleaved caspase-8 expression after 48 hrs by Western blot method; assay type: functional, cell-based
MDA-MB-231 [37] = assay: Antiproliferative activity against human MDA-MB-231 cells assessed as inhibition of colony formation after 48 hrs by crystal violet staining based assay; assay type: functional, cell-based
4T1 = assay: Antitumor activity against mouse 4T1 cells implanted in Kunming mouse assessed as tumor growth inhibition at 10 to 20 mg/kg, po qd for 14 days; assay type: functional, organism-based
Mus musculus [38] = assay: In vivo inhibition of STAT3 phosphorylation at Tyr-705 residue in tumor of Kunming mouse implanted with mouse 4T1 cells at 10 to 20 mg/kg, po qd for 14 days; assay type: functional, organism-based
Mus musculus [39] = assay: Toxicity in Kunming mouse implanted with mouse 4T1 cells assessed as body weight loss at 10 to 20 mg/kg, po qd for 14 days measured during compound dosing; assay type: organism-based; conditions: in vivo, 336 h
MDA-MB-231 [40] = assay: Potency index, ratio of caffeic acid IC50 to compound IC50 for human MDA-MB-231 cells; assay type: functional

Structure (SMILES): COc1cc(/C=C/c2ccc(NC(=O)/C=C/c3ccc(F)cc3F)cc2)cc(OC)c1
- IC50 [1]: 18.1 µM
- IC50 [2]: > 20 µM

Structure (SMILES): O=C(O)/C=C/c1ccc(O)c(O)c1 [CAFFEIC ACID]
- IC50 [1]: > 100 µM
- IC50 [2]: > 100 µM

Structure (SMILES): COc1cc(/C=C/c2ccc(OC(=O)/C=C/c3ccccc3)cc2)cc(OC)c1
- IC50 [1]: 9.05 µM
- IC50 [2]: 9.81 µM

- inhibition [4]: Dose-dependent effect
- inhibition [6]: Active
- inhibition [7]: Active
- inhibition [8]: Active
- inhibition [9]: Dose-dependent effect
- inhibition [10]: Active
- inhibition [11]: Active
- inhibition [12]: Active
- inhibition [13]: Active
Structure (SMILES): COc1cc(/C=C/c2ccc(NC(=O)/C=C/c3cc(OC)c(OC)c(OC)c3)cc2)cc(OC)c1
- IC50 [1]: 1.82 µM
- IC50 [2]: 2.14 µM
- Ratio IC50 (MDA-MB-231 [3]): >50
- Activity [5]: Non-Toxic
- Activity (MDA-MB-231 [14]): 89.7%
- Activity (MDA-MB-231 [15]): 7.7%
- Activity (MDA-MB-231 [16]): 1.3%
- Activity (MDA-MB-231 [17]): 1.3%
- Activity (MDA-MB-231 [18]): 87.5%
- Activity (MDA-MB-231 [19]): 9.8%
- Activity (MDA-MB-231 [20]): 1.4%
- Activity (MDA-MB-231 [21]): 1.3%
- Activity (MDA-MB-231 [22]): 78%
- Activity (MDA-MB-231 [23]): 16.2%
- Activity (MDA-MB-231 [24]): 4.7%
- Activity (MDA-MB-231 [25]): 1.1%
- Activity (MDA-MB-231 [26]): 51.8%
- Activity (MDA-MB-231 [27]): 37.1%
- Activity (MDA-MB-231 [28]): 6.2%
- Activity (MDA-MB-231 [29]): 0.6%
- Activity (MDA-MB-231 [30]): 18.5%
- Activity (MDA-MB-231 [31]): 74.6%
- Activity (MDA-MB-231 [32]): 10.6%
- Activity (MDA-MB-231 [33]): 0.7%
- Activity (MDA-MB-231 [34]): Dose-dependent effect
- Activity (MDA-MB-231 [35]): Dose-dependent effect
- Activity (MDA-MB-231 [36]): Active
- inhibition (MDA-MB-231 [37]): Dose-dependent effect
- TGI (4T1): Active
- inhibition (Mus musculus [38]): Active
- Activity (Mus musculus [39]): Non-Toxic
- Ratio IC50 (MDA-MB-231 [40]): >50

Structure (SMILES): COc1cc(/C=C/c2ccc(OC(=O)/C=C/c3cc(OC)c(OC)c(OC)c3)cc2)cc(OC)c1
- IC50 [1]: 2.91 µM
- IC50 [2]: 3.08 µM

Structure (SMILES): COc1cc(/C=C/c2ccc(NC(=O)/C=C/c3cc(OC)c(O)c(OC)c3)cc2)cc(OC)c1
- IC50 [1]: 3.08 µM
- IC50 [2]: 7.13 µM

Structure (SMILES): COc1ccc(/C=C/C(=O)Nc2ccc(/C=C/c3cc(OC)cc(OC)c3)cc2)cc1
- IC50 [1]: 5.96 µM
- IC50 [2]: 4.23 µM

Structure (SMILES): COc1cc(/C=C/c2ccc(NC(=O)/C=C/c3ccc(F)cc3)cc2)cc(OC)c1
- IC50 [1]: 11.6 µM
- IC50 [2]: 9.39 µM

Structure (SMILES): COc1cc(/C=C/c2ccc(NC(=O)/C=C/c3ccc(Br)cc3)cc2)cc(OC)c1
- IC50 [1]: 5.26 µM
- IC50 [2]: 6.16 µM

Structure (SMILES): COc1cc(/C=C/c2ccc(NC(=O)/C=C/c3ccc([N+](=O)[O-])cc3)cc2)cc(OC)c1
- IC50 [1]: 10.7 µM
- IC50 [2]: 11.7 µM

Structure (SMILES): COc1cc(/C=C/c2ccc(NC(=O)/C=C/c3ccc(O)c(O)c3)cc2)cc(OC)c1
- IC50 [1]: 1.56 µM
- IC50 [2]: 4.23 µM

Structure (SMILES): COc1cc(/C=C/c2ccc(NC(=O)/C=C/c3ccc(C#N)cc3)cc2)cc(OC)c1
- IC50 [1]: 3.32 µM
- IC50 [2]: 7.74 µM
